Laboratory results: US20070117743A1, “New antitumoral compounds” (priority 2003, published 2007)
Where a SMILES comes first, the peptide text is derived from it. Bridges are numbered along the chain shown (N, C = ends). [ ]: non-standard residue; d: D form. The star is where a group is joined. 2Nal = N[C@@H](Cc1ccc2ccccc2c1)C(=O)O; d(aIle) = CC[C@H](C)[C@@H](N)C(=O)O; d(aThr) = C[C@@H](O)[C@@H](N)C(=O)O; Hexanoyl(5-Me) = CC(C)CCCC(=O)*; Orn = NCCC[C@H](N)C(=O)O; Dhb = C/C=C(\N)C(=O)O

What was measured:
Format in all cases: cell-based, human
[1] = test system: HeLa; assay: SRB colorimetric assay of cell growth and viability, HeLa; details: HELA, 48 hours exposure; for CC50: read-out: LC50 HELA
[2] = test system: A-549; assay: SRB colorimetric assay of cell growth and viability, A-549; details: A-549, 48 hours exposure; for GI50: read-out: GI50 A-549; for CC50: read-out: LC50 A-549
[3] = test system: IGROV-1; assay: SRB colorimetric assay of cell growth and viability, IGROV-1; details: IGROV; 48 hours exposure
[4] = test system: IGROV-ET; assay: SRB colorimetric assay of cell growth and viability, IGROV-ET; details: IGROV-ET, 48 hours exposure; for CC50: read-out: LC50 IGROV-ET
[5] = test system: HT-29; assay: SRB colorimetric assay of cell growth and viability, HT-29; details: HT-29, 48 hours exposure; for GI50: read-out: GI50 HT-29; for CC50: read-out: LC50 HT-29
[6] = test system: HeLa-APL; assay: SRB colorimetric assay of cell growth and viability, HeLa-APL; details: HELA-APL, 48 hours exposure; for CC50: read-out: LC50 HELA-APL
[7] = test system: LoVo; assay: SRB colorimetric assay of cell growth and viability, LoVo; details: LOVO, 48 hours exposure; for CC50: read-out: LC50 LOVO
[8] = test system: SK-MEL-28; assay: SRB colorimetric assay of cell growth and viability, SK-MEL-28; details: MEL-28, 48 hours exposure; for CC50: read-out: LC50 MEL-28
[9] = test system: PANC-1; assay: SRB colorimetric assay of cell growth and viability, PANC-1; details: PANC-1, 48 hours exposure; for CC50: read-out: LC50 PANC-1
[10] = test system: DU-145; assay: SRB colorimetric assay of cell growth and viability, DU-145; details: DU-145; 48 hours exposure
[11] = test system: LoVo-Dox; assay: SRB colorimetric assay of cell growth and viability, LoVo-Dox; details: LOVO-DOX, 48 hours exposure; for CC50: read-out: LC50 LOVO-DOX
Summary of the method: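 Continuous 48-hour exposure of cells plated at 5×10^3 per well, with compounds diluted in DMSO:EtOH:PBS (0.5:0.5:99) over 10 to 10^−8 μg/mL. Staining with SRB and reading at 490 nm give GI, TGI and LC.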

[12] = test system: SK-BR-3; assay: SRB colorimetric assay of cell growth and viability, SK-BR-3; details: SK-BR-3; 48 hours exposure
[13] = test system: K-562; assay: SRB colorimetric assay of cell growth and viability, K-562; details: K-562, 48 hours exposure; for CC50: read-out: LC50 K-562

Structure (SMILES)	GI50 [1] [nM]	TGI HELA [1] [Molar]	CC50 [1] [nM]	TGI A-549 [2] [Molar]	GI50 [2] [nM]	CC50 [2] [nM]	GI50 [3] [nM]	LC50 (concentration causing 50% net cell killing) [3] [nM]	TGI IGROV [3] [Molar]	GI50 [4] [nM]	TGI IGROV-ET [4] [Molar]	CC50 [4] [nM]	TGI HT-29 [5] [Molar]	GI50 [5] [nM]	CC50 [5] [nM]	GI50 [6] [nM]	TGI HELA-APL [6] [Molar]	CC50 [6] [nM]	GI50 [7] [nM]	TGI LOVO [7] [Molar]	further results
C/C=C1\NC(=O)[C@H](Cc2ccc(Cl)cc2)NC(=O)[C@@H](C(C)C)NC(=O)[C@@H]([C@@H](C)CC)NC(=O)[C@H](NC(=O)[C@H](NC(=O)[C@H](CCCN)NC(=O)[C@H]2CCCN2C(=O)[C@H](NC(=O)[C@@H](NC(=O)[C@@H](NC(=O)[C@H](NC(=O)CCCC(C)C)C(C)C)[C@@H](C)O)C(C)C)C(C)C)[C@@H](C)CC)[C@@H](C)OC(=O)[C@H](C(C)C)NC1=O [Compound 83, [Phe(4-Cl)^3]-KF]	51.9	2.00E−07	475	3.62E−07	221	593	37.1	143	7.69E−08	65.2	1.21E−07	587	8.24E−08	36.8	172	96.5	2.28E−07	470	30.3	6.27E−08	CC50 [7]: 165 nM; GI50 [8]: 206 nM; TGI MEL-28 [8]: 3.40E−07 Molar; CC50 [8]: 561 nM; GI50 [9]: 658 nM; TGI PANC-1 [9]: 1.07E−06 Molar; CC50 [9]: 1750 nM; GI50 [10]: 83 nM; LC50 (concentration causing 50% net cell kill) [10]: 461 nM; TGI DU-145 [10]: 2.07E−07 Molar; GI50 [11]: 38.2 nM; TGI LOVO-DOX [11]: 7.81E−08 Molar; CC50 [11]: 1840 nM; GI50 [12]: 34.2 nM; LC50 [12]: 155 nM; TGI SK-BR-3 [12]: 5.29E−08 Molar; GI50 [13]: 333 nM; TGI K-562 [13]: 5.08E−07 Molar; CC50 [13]: 1130 nM
C/C=C1\NC(=O)[C@H](Cc2ccc(F)c(F)c2)NC(=O)[C@@H](C(C)C)NC(=O)[C@@H]([C@@H](C)CC)NC(=O)[C@H](NC(=O)[C@H](NC(=O)[C@H](CCCN)NC(=O)[C@H]2CCCN2C(=O)[C@H](NC(=O)[C@@H](NC(=O)[C@@H](NC(=O)[C@H](NC(=O)CCCC(C)C)C(C)C)[C@@H](C)O)C(C)C)C(C)C)[C@@H](C)CC)[C@@H](C)OC(=O)[C@H](C(C)C)NC1=O [Compound 84, [Phe(3,4-F2)^3]-KF]	70.6	2.17E−07	451	3.96E−07	224	848	47.2	155	9.40E−08	65.1	1.16E−07	343	9.77E−08	62.7	152	117	2.49E−07	467	31.7	7.25E−08	CC50 [7]: 150 nM; GI50 [8]: 224 nM; TGI MEL-28 [8]: 3.55E−07 Molar; CC50 [8]: 561 nM; GI50 [9]: 725 nM; TGI PANC-1 [9]: 1.17E−06 Molar; CC50 [9]: 1840 nM; GI50 [10]: 111 nM; LC50 (concentration causing 50% net cell kill) [10]: 463 nM; TGI DU-145 [10]: 2.54E−07 Molar; GI50 [11]: 32.3 nM; TGI LOVO-DOX [11]: 6.88E−08 Molar; CC50 [11]: 176 nM; GI50 [12]: 27.3 nM; LC50 [12]: 136 nM; TGI SK-BR-3 [12]: 5.34E−08 Molar; GI50 [13]: 560 nM; TGI K-562 [13]: 9.28E−07 Molar; CC50 [13]: 1420 nM
C/C=C1\NC(=O)[C@H](Cc2ccc3ccccc3c2)NC(=O)[C@@H](C(C)C)NC(=O)[C@@H]([C@@H](C)CC)NC(=O)[C@H](NC(=O)[C@H](NC(=O)[C@H](CCCN)NC(=O)[C@H]2CCCN2C(=O)[C@H](NC(=O)[C@@H](NC(=O)[C@@H](NC(=O)[C@H](NC(=O)CCCC(C)C)C(C)C)[C@@H](C)O)C(C)C)C(C)C)[C@@H](C)CC)[C@@H](C)OC(=O)[C@H](C(C)C)NC1=O [Compound 85, [Nal^3]-KF] ({Hexanoyl(5-Me)}-[dV]TV[dV][dP][Orn][d(aIle)][d(aThr)][d(aIle)][dV][2Nal][Dhb]V; ester 8-C)	78.6	1.94E−07	462	3.39E−07	192	599	49.8	169	9.81E−08	74.3	1.44E−07	425	1.16E−07	73.1	278	90.7	1.91E−07	427	32.8	8.16E−08	CC50 [7]: 192 nM; GI50 [8]: 230 nM; TGI MEL-28 [8]: 3.64E−07 Molar; CC50 [8]: 579 nM; GI50 [9]: 694 nM; TGI PANC-1 [9]: 1.04E−06 Molar; CC50 [9]: 1570 nM; GI50 [10]: 111 nM; LC50 (concentration causing 50% net cell kill) [10]: 488 nM; TGI DU-145 [10]: 2.53E−07 Molar; GI50 [11]: 37 nM; TGI LOVO-DOX [11]: 8.77E−08 Molar; CC50 [11]: 847 nM; GI50 [12]: 37.1 nM; LC50 [12]: 170 nM; TGI SK-BR-3 [12]: 5.80E−08 Molar; GI50 [13]: 301 nM; TGI K-562 [13]: 7.13E−07 Molar; CC50 [13]: 1380 nM
